Source: patent US4086139A, “Differential inactivation of amylase in amylase-protease mixtures” (GB Fermentation Industries Inc., priority 1976, dated 1978)
Where “and” joins values, the source holds several entries; their conditions need not be identical. Equal values may be shown once. Read-outs that look alike come from different tables or passages of the source.

Key:
Type in all cases: biochemical
amylase [1] = assay: Amylase activity of B. subtilis Alkaline Protease composition after oxidizing agent treatment (Food Chemicals Codex method); conditions: for Amylase % loss: 75 min
protease [2] = molecular target: protease (Bacillus subtilis, UniProt P04189); assay: Protease activity of B. subtilis Alkaline Protease composition after oxidizing agent treatment (Food Chemicals Codex method)
amylase [3] = molecular target: T1, amylase (Sus scrofa, UniProt P00690); assay: Amylase activity of pancreatin after hypochlorite treatment
T1 construct: purchased Cudahy Co; host or cells: pancreas (pancreatin)
T1 sequence (P00690 16-511): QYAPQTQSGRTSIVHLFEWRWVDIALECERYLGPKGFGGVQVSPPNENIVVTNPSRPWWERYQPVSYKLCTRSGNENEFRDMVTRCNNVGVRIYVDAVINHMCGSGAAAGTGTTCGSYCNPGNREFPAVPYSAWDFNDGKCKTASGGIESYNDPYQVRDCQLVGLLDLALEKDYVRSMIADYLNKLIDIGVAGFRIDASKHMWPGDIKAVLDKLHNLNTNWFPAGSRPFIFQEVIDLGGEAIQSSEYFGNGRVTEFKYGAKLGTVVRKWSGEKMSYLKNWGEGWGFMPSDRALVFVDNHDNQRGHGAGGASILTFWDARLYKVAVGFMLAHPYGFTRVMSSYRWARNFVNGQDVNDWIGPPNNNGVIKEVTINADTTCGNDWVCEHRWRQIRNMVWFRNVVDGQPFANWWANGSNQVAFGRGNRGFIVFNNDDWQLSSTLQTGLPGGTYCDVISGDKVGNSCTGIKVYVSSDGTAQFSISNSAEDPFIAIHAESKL
Protocol: (§1) Pancreatin obtained from the Cudahy Co. was dissolved in isotonic salt solution (0.9% NaCl) to a concentration of 3.13 g. in 25 g. of solution. The solution pH was 6.5. Sodium hypochlorite solution (Clorox®) was added and the increments equalized by the addition of isotonic salt solution. The isotonic salt solution is used to avoid potency degradation of the solution upon standing. A similar lack of effect was noted when using an enzyme solution having a pH of 5.8 rather than 6.5. The enzyme mixture was treated for 11/4 hr. at room temperature and then assayed for protease and amylase activity. As in the prior Examples, the percent sodium hypochlorite is based on the solids content of the enzyme solution.
(§2) ^1, ^2 Amylase and protease activity were assayed by the same

protease [4] = assay: Protease activity of pancreatin after hypochlorite treatment; design: Protease Activity: unit not given beside the values; conditions: for Protease Activity: pH 6.5, 0% control 27,300; for Protease % loss: pH 6.5, 75 min
Protocol: as §1, §2

amylase [5] = assay: Amylase inactivation in dry enzyme mixture from Bacillus subtilis culture filtrate, spray dried product; conditions: 0.35% NaOCl based on weight of dry mixture, pH 6.2-6.6
Protocol: (§3) Twenty five pounds of an unstandarized, dry enzyme mixture, obtained by drying the clarified culture filtrate from the aerobic fermentation of Bacillus subtilis in an aqueous nutrient culture medium containing assimilable C, N and mineral salts, and which was determined to contain neutral protease, alkaline protease and amylase, is admixed with one hundred pounds of water at 70°-85° F. and agitated to facilitate solution. The solution is adjusted to pH 6.2-6.6 by slow addition of 20% aqueous NaOH solution. Then, 1.67 pounds of Clorox® (containing 5.25% NaOCl) is slowly admixed with the foregoing enzyme solution to thereby result in the addition of 0.0877 pounds or 0.35% NaOCl based on the weight of the dry mixture.

[6] = system: protease (both neutral and alkaline); assay: Protease retention in dry enzyme mixture from Bacillus subtilis culture filtrate, spray dried product; conditions: 0.35% NaOCl based on weight of dry mixture; pH 6.2-6.6; final spray dried material vs starting material
Protocol: as §3

[7] = Table II, treated solution, 0.3% based on weight of enzyme composition, final pH 6.5
[8] = Table III, spray-dried product, 0.3% based on weight of enzyme composition

Chain of protease (Bacillus subtilis, UniProt P04189) (P04189 107-381): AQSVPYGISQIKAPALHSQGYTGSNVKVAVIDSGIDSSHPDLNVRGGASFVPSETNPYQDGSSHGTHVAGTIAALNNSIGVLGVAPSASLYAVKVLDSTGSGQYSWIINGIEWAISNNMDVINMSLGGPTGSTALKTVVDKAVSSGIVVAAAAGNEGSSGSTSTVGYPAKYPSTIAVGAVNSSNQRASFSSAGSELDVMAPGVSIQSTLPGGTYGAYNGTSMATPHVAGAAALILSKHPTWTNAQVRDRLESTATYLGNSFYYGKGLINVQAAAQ

## OO [hydrogen peroxide, reference compound]
Amylase [1]
  Amylase Activity: 1250
  selective inactivation of amylase compared with hypochlorite (in words): substantially less effective in selectively inactivating amylase
Amylase [1]; pH 6.4
  Amylase Activity: 236
Protease [2]
  Protease Activity: 157,512
Protease [2]; pH 6.4
  Protease Activity: 29,579

## [Na+].[O-][Cl+2]([O-])[O-] [sodium chlorate, reference compound]
Amylase [1]
  effect on amylase activity: Neither of these salts had any effect
Protease [2]
  effect on protease activity: Neither of these salts had any effect

## OCl [sodium hypochlorite]
Amylase [1]; 0.125% ion salt, pH 6.3, 0% control 583
  Amylase Activity: 242
Amylase [1]; 0.125% ion salt, pH 6.3
  Amylase % loss: 55%
Amylase [1]; 0.25% ion salt, pH 6.3, 0% control 583
  Amylase Activity: 16
Amylase [1]; 0.25% ion salt, pH 6.3
  Amylase % loss: 97%
Amylase [1]; 0.40% ion salt, pH 6.3, 0% control 583
  Amylase Activity: 11
Amylase [1]; 0.40% ion salt, pH 6.3
  Amylase % loss: 98%
Amylase [1]; [7]
  Amylase Activity: 3
Amylase [1]; [8]
  Amylase Activity: 15
Protease [2]; 0.125% ion salt, pH 6.3, 0% control 25,900
  Protease Activity: 25,100
Protease [2]; 0.25% ion salt, pH 6.3, 0% control 25,900
  Protease Activity: 25,900
Protease [2]; 0.40% ion salt, pH 6.3, 0% control 25,900
  Protease Activity: 24,600
Protease [2]; 1.25 h, 0.125% ion salt, pH 6.3, read-out: Protease % loss
  inhibition at 0.125 %: 3%
Protease [2]; 1.25 h, 0.25% ion salt, pH 6.3, read-out: Protease % loss
  inhibition at 0.25 %: 0%
Protease [2]; 1.25 h, 0.40% ion salt, pH 6.3, read-out: Protease % loss
  inhibition at 0.4 %: 5%
Protease [2]; [7]
  Protease Activity: 27,365
Protease [2]; [8]
  Protease Activity: 147,650
Amylase [3]; 1.8% on solids content, pH 6.5, room temperature, 0% control 1075
  Amylase Activity: 467
Amylase [3]; 3.6% on solids content, pH 6.5, 0% control 1075
  Amylase Activity: 31
Amylase [3]; 7.2% on solids content, pH 6.5, 0% control 1075
  Amylase Activity: 3
Amylase [3]; 10.8% on solids content, pH 6.5, 0% control 1075
  Amylase Activity: 0
Amylase [3]; 1.25 h, 1.8% on solids content, pH 6.5, read-out: Amylase % loss
  inhibition at 1.8 %: 57%
Amylase [3]; 1.25 h, 3.6% on solids content, pH 6.5, read-out: Amylase % loss
  inhibition at 3.6 %: 97%
Amylase [3]; 1.25 h, 7.2% on solids content, pH 6.5, read-out: Amylase % loss
  inhibition at 7.2 %: 100%
Amylase [3]; 1.25 h, 10.8% on solids content, pH 6.5, read-out: Amylase % loss
  inhibition at 10.8 %: 100%
Protease [4]; 1.8% on solids content
  Protease Activity: 28,400
  Protease % loss: 0%
Protease [4]; 3.6% on solids content
  Protease Activity: 24,800
  Protease % loss: 9%
Protease [4]; 7.2% on solids content
  Protease Activity: 19,100
  Protease % loss: 30%
Protease [4]; 10.8% on solids content
  Protease Activity: 11,200
  Protease % loss: 59%
Amylase [5]
  amylase destruction (in words): immediately destroys the amylase
Amylase [5]; final spray dried material vs starting material
  amylase inactivated: about 98%
[6]
  protease retained in the final product: greater than 90%

## [O-][Cl+3]([O-])([O-])O [sodium perchlorate, reference compound]
Amylase [1]
  effect on amylase activity: Neither of these salts had any effect
Protease [2]
  effect on protease activity: Neither of these salts had any effect

## sodium chlorite
Amylase [1]; b. subtilis amylase, pH 6.3, 75 min
  Amylase % loss: 99%
Protease [2]; b. subtilis alkaline protease, pH 6.3, 75 min, 75 min
  Protease % loss: 0% and 1% and 8%
Protease [2]; pH 6.3
  Protease Activity: 40,800 and 39,900 and 37,200
